# “And” between values parts separate entries of the source, which are not always exact repeats. Identical values can stand only once. Like-named read-outs stand apart in the source and are kept apart here.
# How the values were obtained:
# [1] = test system: human colon adenocarcinoma cell line (Lovo); assay: in vitro cytotoxic activity, MTT assay, Lovo cell line; format: cell-based; conditions: 144 hours drug-exposure
# Method: (§1) The evaluation of the "in vitro" cytotoxic activity of the compounds of the invention was performed using a human colon adenocarcinoma cell line (Lovo) isolated from a metastatic nodule and a subline with aquired resistance to a number of antitumor agents, among which doxorubicin, VP-16 and vincristine. […] Cancer, (1986), 54, 515). The compounds were tested according to the MTT assay (Mosman, T. "Rapid Colorimetric assay for cellular growth and survival: application to proliferation and cytotoxicity assay", J. Immunol. Methods, (1983), 65, 55-63; Green. L.M., "Rapid Colorimetric assay for cell viability; application to the quantitation of cytotoxic and growth inhibitory lymphokines", J. Immunol. Methods, (1984), 70, 257-268) in comparison with ametantrone and doxorubicin.
# Lovo/DX = assay: in vitro cytotoxic activity, MTT assay, resistant subline Lovo/DX; format: cell-based, human; conditions: for resistance index RI (ratio of the IC50 for the resistant cell line to the IC50 for the sensitive cell line): Lovo/DX versus Lovo
# Method: as §1
# [2] = in animals; cited from earlier work
# murine L 1210 leukemia [3] = conditions: cited from earlier work
# murine L 1210 leukemia [4] = conditions: cited from earlier work; for in vivo T/C: murine L 1210 leukemia
# P 388 MURINE LEUKEMIA = assay: P 388 murine leukemia model in vivo (iv/iv 1,4,7); parameters: species or system CD2Fl mice
# Method: Studies of the biological activity "in vivo" of representative compounds of the invention were performed using the P 388 and L 1210 murine leukemia models.
# (§2) P 388 Murine leukemia cells were intravenously (iv) injected in CD2Fl mice. Treatment was initiated approximately 24 hours after tumor transplantation and dosages of the drug were administered iv according to preestablished protocols, usually at 3-day intervals. The studies were done over a 60 day period and the date of death for each animal was recorded. The % T/C was determined using the median survival time (MST) for each group according to the formula % T/C = [(MST treated)/(MST control)] x 100. [formula]
# MURINE LEUKEMIA L1210 = assay: L 1210 murine leukemia model in vivo (iv/iv 1,4,7); parameters: species or system CD2Fl mice
# Method: The antitumor activity of representative compounds of this invention was evaluated also in the L 1210 murine leukemia model.
# as §2, with “L 1210” for “P 388 Murine”, “mice and treatment” for “mice. Treatment”, “transplantation. Dosages” for “transplantation and dosages”, “drugs” for “drug”, “60-day” for “60 day”
# [5] = P 388, iv on days 1,4,7, Dose 18 mg/kg/day
# [6] = P 388, iv on days 1,4,7, Dose 27 mg/kg/day
# [7] = L1210, iv on days 1,4,7, Dose 40 mg/kg/day
# [8] = L1210, iv on days 1,4,7, Dose 60 mg/kg/day
# [9] = P 388, iv on days 1,4,7, Dose 2 mg/kg/day
# [10] = P 388, iv on days 1,4,7, Dose 3 mg/kg/day
# [11] = P 388, iv on days 1,4,7, Dose 4 mg/kg/day
# [12] = L1210, iv on days 1,4,7, Dose 2 mg/kg/day
# [13] = L1210, iv on days 1,4,7, Dose 3 mg/kg/day
compound,measurement,setting,value
"O=C1c2ccccc2C(=O)c2c(NCCNCCO)ccc(NCCNCCO)c21 [ametantrone, 1,4-bis{[2-(2-hydroxyethylamino)ethyl]amino]anthracene-9,10-dione]",IC50,[1],0.33 ± 0.1 µg/mL
same,resistance index RI (ratio of the IC50 for the resistant cell line to the IC50 for the sensitive cell line),Lovo/DX,101.2
same,less potent and cardiotoxic than mitoxantrone,[2],about 10 fold
COc1cccc2c1C(=O)c1c(O)c3c(c(O)c1C2=O)C[C@@](O)(C(=O)CO)C[C@@H]3O[C@H]1C[C@H](N)[C@H](O)[C@H](C)O1 [doxorubicin],resistance index RI (ratio of the IC50 for the resistant cell line to the IC50 for the sensitive cell line),Lovo/DX,142.7
CCN(CC)CCNc1ccc(NCCN(CC)CC)c2c1C(=O)c1ccccc1C2=O [Compound 6b],in vitro ID50,murine L 1210 leukemia [3],0.30 µg/mL
CCN(CC)CCNc1ccc(NCCN(CC)CC)c2c1C(=O)c1cccnc1C2=O [Compound 5b],in vitro ID50,murine L 1210 leukemia [3],2.4 µg/mL
same,in vivo T/C,murine L 1210 leukemia [4]; Dose 100 mg/kg,toxic
"NCCNc1ccc(NCCN)c2c1C(=O)c1cc[n+]([O-])cc1C2=O.O=C(O)/C=C\C(=O)O.O=C(O)/C=C\C(=O)O [Compound 7b, 6,9-bis[N-(2-aminoethyl)amino]benzo[g]isoquinoline-5,10-dione-2-oxide dimaleate]",T/C% (range),P 388 MURINE LEUKEMIA; [5],122%
same,TOX (Number of toxic deaths/total number of mice),P 388 MURINE LEUKEMIA; [5],0/8
same,T/C% (range),P 388 MURINE LEUKEMIA; [6],133%
same,TOX (Number of toxic deaths/total number of mice),P 388 MURINE LEUKEMIA; [6],0/8
same,TOX (Number of toxic deaths/total number of mice),"P 388 MURINE LEUKEMIA; P 388, iv on days 1,4,7, Dose 40 mg/kg/day",1/24
same,T/C% (range),"P 388 MURINE LEUKEMIA; P 388, iv on days 1,4,7, Dose 40 mg/kg/day, dimaleate, 40 mg/kg/day",144% and 166% and 194%
same,TOX (Number of toxic deaths/total number of mice),"P 388 MURINE LEUKEMIA; P 388, iv on days 1,4,7, Dose 60 mg/kg/day",0/17
same,T/C% (range),"P 388 MURINE LEUKEMIA; P 388, iv on days 1,4,7, Dose 60 mg/kg/day, dimaleate, 60 mg/kg/day",200% and 225%
same,TOX (Number of toxic deaths/total number of mice),"P 388 MURINE LEUKEMIA; P 388, iv on days 1,4,7, Dose 80 mg/kg/day",4/17
same,T/C% (range),"P 388 MURINE LEUKEMIA; P 388, iv on days 1,4,7, Dose 80 mg/kg/day, dimaleate, 80 mg/kg/day",211% and 262%
same,LTS,MURINE LEUKEMIA L1210; [7],0/8
same,T/C% (range),MURINE LEUKEMIA L1210; [7],266%
same,TOX (Number of toxic deaths/total number of mice),MURINE LEUKEMIA L1210; [7],0/8
same,LTS,MURINE LEUKEMIA L1210; [8],0/10
same,T/C% (range),MURINE LEUKEMIA L1210; [8],333%
same,TOX (Number of toxic deaths/total number of mice),MURINE LEUKEMIA L1210; [8],0/10
"O=C1c2c(O)ccc(O)c2C(=O)c2c(NCCNCCO)ccc(NCCNCCO)c21 [MITOX, 5,8-dihydroxy-1,4-bis([2-(2-hydroxyethylamino)ethyl]amino]anthracene-9,10-dione]",T/C% (range),P 388 MURINE LEUKEMIA; [9],171(154-212) %
same,TOX (Number of toxic deaths/total number of mice),P 388 MURINE LEUKEMIA; [9],0/50
same,T/C% (range),P 388 MURINE LEUKEMIA; [10],185(167-217) %
same,TOX (Number of toxic deaths/total number of mice),P 388 MURINE LEUKEMIA; [10],12/84
same,T/C% (range),P 388 MURINE LEUKEMIA; [11],118(89-133) %
same,TOX (Number of toxic deaths/total number of mice),P 388 MURINE LEUKEMIA; [11],20/24
same,LTS,MURINE LEUKEMIA L1210; [12],0/8
same,T/C% (range),MURINE LEUKEMIA L1210; [12],208%
same,TOX (Number of toxic deaths/total number of mice),MURINE LEUKEMIA L1210; [12],0/8
same,LTS,MURINE LEUKEMIA L1210; [13],0/8
same,T/C% (range),MURINE LEUKEMIA L1210; [13],216%
same,TOX (Number of toxic deaths/total number of mice),MURINE LEUKEMIA L1210; [13],0/8
"CN(C)CCNc1ccc(NCCN(C)C)c2c1C(=O)c1cc[n+]([O-])cc1C2=O [Compound 7a, 6,9-bis[N-(2-dimethylaminoethyl)amino]benzo[g]isoquinoline-5,10-dione-2-oxide]",IC50,[1],0.44 µg/mL
same,IC50,"Lovo/DX; Homo sapiens, Lovo/DX resistant subline",2.68 µg/mL
same,resistance index RI (ratio of the IC50 for the resistant cell line to the IC50 for the sensitive cell line),Lovo/DX,6.1
CN(C)CCCNc1ccc(NCCCN(C)C)c2c1C(=O)c1cccnc1C2=O [Compound 5c],in vitro ID50,murine L 1210 leukemia [3],1.7 µg/mL
CN(C)CCNc1ccc(NCCN(C)C)c2c1C(=O)c1ccccc1C2=O [Compound 6a],in vitro ID50,murine L 1210 leukemia [3],0.08 µg/mL
same,in vivo T/C,murine L 1210 leukemia [4]; Dose 30 mg/kg,150
CN(C)CCNc1ccc(NCCN(C)C)c2c1C(=O)c1cccnc1C2=O [Compound 5a],in vitro ID50,murine L 1210 leukemia [3],0.16 µg/mL
same,antitumor activity in vivo (in words),murine L 1210 leukemia [4]; as reported in table II,inactive in vivo
same,in vivo T/C,murine L 1210 leukemia [4]; Dose 50 mg/kg,130
